According to patent US20210085640A1, “ACYLATED CATECHIN POLYPHENOLS AND METHODS OF THEIR USE FOR THE TREATMENT OF CANCER” (Flagship Pioneering Innovations V, Inc., priority 2018, published 2021):

Tests used:
Assay type in all cases: cell-based
[1] = test system: Daudi lymphoma cancer cells; test: Cancer cell survival (CellTiter-Glo), Daudi; conditions: 72 h
Procedure: (§1) The cells were prepared as follows. Cells were harvested during logarithmic growth, counted, and adjusted to 4.44×10^4 cells/mL with culture media. 90 μL of suspended cells were added to wells of 96-well plates for a final cell count of 4×10^3 cells/well. The plates were incubated overnight at 37 C with 5% CO2 overnight.
(§2) The test compounds were assayed as follows. Compound solutions were mixed at 10× final concentrations in cell media: 1 μM-10 mM (fatty acids) or 100 nM-1 mM (all other compounds). […] of solution was added to each well of cells in triplicate for each concentration. Well plates were incubated for 72 h at 37 C with 5% CO2 and then assayed with CellTiter-Glo by adding 50 μL of CTG solution to each well. Cells were lysed by shaking on an orbital shaker for 5 min. Plates were incubated at room temperature for 20 min and then each well's luminescence was measured. The surviving percentage of cells was determined as:
(§3) Survival %=(LumTest article−LumMedium control)/(LumNone treated−LumMedium control)[…]
Activity was assessed at nine concentration levels for each compound and the 50% inhibition concentration (IC50) determined for each compound.

A-431 skin cancer cells = test: Cancer cell survival (CellTiter-Glo), A-431; parameters: Cell survival at given concentration: unit not given here; conditions: A-431 cells, 72 h
Procedure: as §1, §2, §3
(§4) Cytotoxicity was assessed at nine concentration levels for each compound and the 50% inhibition concentration (IC50) determined for each compound.

T24 bladder cancer cells = test: Cancer cell survival (CellTiter-Glo), T24; conditions: 72 h
Procedure: as §1, §2, §3
Efficacy was assessed at nine concentration levels for each compound and the 50% inhibition concentration (IC50) determined for each compound.

MCF7 breast cancer cells = test: Cancer cell survival (CellTiter-Glo), MCF7; conditions: 72 h
Procedure: as §1, §2, §3, §4

A549 lung cancer cells = test: Cancer cell survival (CellTiter-Glo), A549; conditions: 72 h
Procedure: as §1, §2, §3, §4

[2] = test system: HCT 116 colorectal cancer cells; test: Cancer cell survival (CellTiter-Glo), HCT 116; conditions: HCT 116 cells, 72 h
Procedure: as §1, §2, §3, §4

[3] = test system: PC-3 prostate cancer cells; test: Cancer cell survival (CellTiter-Glo), PC-3; conditions: PC-3 cells, 72 h
Procedure: as §1, §2, §3, §4

AGS stomach cancer cells = test: Cancer cell survival (CellTiter-Glo), AGS; parameters: Cell survival at given concentration: unit not given here
Procedure: as §1, §2, §3, §4

## CCCCC(=O)O [valerate]
[1]; 1 μM, Table 4.2
  Cell survival at given concentration: 0.99
[1]; 3 μM, Table 4.2
  Cell survival at given concentration: 0.98
[1]; 10 μM, Table 4.2
  Cell survival at given concentration: 0.98
[1]; 32 μM, Table 4.2
  Cell survival at given concentration: 1.01
[1]; 100 μM, Table 4.2
  Cell survival at given concentration: 0.95
[1]; 317 μM
  Cell survival at given concentration: 0.91
[1]; 1 mM
  Cell survival at given concentration: 0.76
[1]; 3 mM
  Cell survival at given concentration: 0.39
[1]; 10 mM
  Cell survival at given concentration: 0.12
[1]; Table 4.2
  IC50: 2.3 mM
A-431 skin cancer cells; 1 μM, Table 9.2
  Cell survival at given concentration: 1.01
A-431 skin cancer cells; 3 μM, Table 9.2
  Cell survival at given concentration: 1.01
A-431 skin cancer cells; 10 μM, Table 9.2
  Cell survival at given concentration: 1.02
A-431 skin cancer cells; 32 μM, Table 9.2
  Cell survival at given concentration: 1.02
A-431 skin cancer cells; 100 μM, Table 9.2
  Cell survival at given concentration: 1.02
A-431 skin cancer cells; 317 μM
  Cell survival at given concentration: 1.03
A-431 skin cancer cells; 1 mM
  Cell survival at given concentration: 0.98
A-431 skin cancer cells; 3 mM
  Cell survival at given concentration: 0.89
A-431 skin cancer cells; 10 mM
  Cell survival at given concentration: 0.71
T24 bladder cancer cells; 1 μM, Table 3.2
  Cell survival at given concentration: 1.00
T24 bladder cancer cells; 3 μM, Table 3.2
  Cell survival at given concentration: 1.01
T24 bladder cancer cells; 10 μM, Table 3.2
  Cell survival at given concentration: 1.01
T24 bladder cancer cells; 32 μM, Table 3.2
  Cell survival at given concentration: 0.98
T24 bladder cancer cells; 100 μM, Table 3.2
  Cell survival at given concentration: 0.98
T24 bladder cancer cells; 317 μM
  Cell survival at given concentration: 0.92
T24 bladder cancer cells; 1 mM
  Cell survival at given concentration: 0.89
T24 bladder cancer cells; 3 mM
  Cell survival at given concentration: 0.79
T24 bladder cancer cells; 10 mM
  Cell survival at given concentration: 0.60
T24 bladder cancer cells; Table 3.2, read-out: IC50
  IC50: > 10 mM
MCF7 breast cancer cells; 1 μM, Table 5.2
  Cell survival at given concentration: 1.00
MCF7 breast cancer cells; 3 μM, Table 5.2
  Cell survival at given concentration: 1.02
MCF7 breast cancer cells; 10 μM, Table 5.2
  Cell survival at given concentration: 1.01
MCF7 breast cancer cells; 32 μM, Table 5.2
  Cell survival at given concentration: 0.97
MCF7 breast cancer cells; 100 μM, Table 5.2
  Cell survival at given concentration: 1.00
MCF7 breast cancer cells; 317 μM
  Cell survival at given concentration: 0.96
MCF7 breast cancer cells; 1 mM
  Cell survival at given concentration: 0.94
MCF7 breast cancer cells; 3 mM
  Cell survival at given concentration: 0.76
MCF7 breast cancer cells; 10 mM
  Cell survival at given concentration: 0.50
MCF7 breast cancer cells; Table 5.2
  IC50: > 10 mM
A549 lung cancer cells; 1 μM, Table 7.2
  Cell survival at given concentration: 0.98
A549 lung cancer cells; 3 μM, Table 7.2
  Cell survival at given concentration: 1.00
A549 lung cancer cells; 10 μM, Table 7.2
  Cell survival at given concentration: 1.01
A549 lung cancer cells; 32 μM, Table 7.2
  Cell survival at given concentration: 0.97
A549 lung cancer cells; 100 μM, Table 7.2
  Cell survival at given concentration: 1.04
A549 lung cancer cells; 317 μM
  Cell survival at given concentration: 1.02
A549 lung cancer cells; 1 mM
  Cell survival at given concentration: 0.98
A549 lung cancer cells; 3 mM
  Cell survival at given concentration: 0.87
A549 lung cancer cells; 10 mM
  Cell survival at given concentration: 0.62
A549 lung cancer cells; Table 7.2
  IC50: > 10 mM
[2]; 1 μM, Table 6.2
  Cell survival at given concentration: 0.99
[2]; 3 μM, Table 6.2
  Cell survival at given concentration: 0.99
[2]; 10 μM, Table 6.2
  Cell survival at given concentration: 1.04
[2]; 32 μM, Table 6.2
  Cell survival at given concentration: 1.00
[2]; 100 μM, Table 6.2
  Cell survival at given concentration: 1.01
[2]; 317 μM
  Cell survival at given concentration: 0.99
[2]; 1 mM
  Cell survival at given concentration: 0.90
[2]; 3 mM
  Cell survival at given concentration: 0.60
[2]; 10 mM
  Cell survival at given concentration: 0.17
[2]; Table 6.2
  IC50: 4.07 mM
[3]; 1 μM, Table 8.2
  Cell survival at given concentration: 1.00
[3]; 3 μM, Table 8.2
  Cell survival at given concentration: 0.99
[3]; 10 μM, Table 8.2
  Cell survival at given concentration: 1.02
[3]; 32 μM, Table 8.2
  Cell survival at given concentration: 1.01
[3]; 100 μM, Table 8.2
  Cell survival at given concentration: 1.04
[3]; 317 μM
  Cell survival at given concentration: 0.97
[3]; 1 mM
  Cell survival at given concentration: 0.94
[3]; 3 mM
  Cell survival at given concentration: 0.84
[3]; 10 mM
  Cell survival at given concentration: 0.69
[3]; Table 8.2
  IC50: > 10 mM
AGS stomach cancer cells; 1 μM, Table 10.2
  Cell survival at given concentration: 1.03
AGS stomach cancer cells; 3 μM, Table 10.2
  Cell survival at given concentration: 1.03
AGS stomach cancer cells; 10 μM, Table 10.2
  Cell survival at given concentration: 1.04
AGS stomach cancer cells; 32 μM, Table 10.2
  Cell survival at given concentration: 1.03
AGS stomach cancer cells; 100 μM, Table 10.2
  Cell survival at given concentration: 1.05
AGS stomach cancer cells; 317 μM
  Cell survival at given concentration: 1.06
AGS stomach cancer cells; 1 mM
  Cell survival at given concentration: 1.06
AGS stomach cancer cells; 3 mM
  Cell survival at given concentration: 0.97
AGS stomach cancer cells; 10 mM
  Cell survival at given concentration: 0.63
